Experimental data: BigSolDB 2.1

CCCCN(CCCC)c1ccc(C(=O)c2ccccc2C(=O)O)c(O)c1
solubility (mole fraction)
Conditions | 283.15 K | 288.15 K | 293.15 K | 298.15 K | 303.15 K | 308.15 K | 313.15 K | 318.15 K | 323.15 K
in acetone | 0.015 | 0.0171 | 0.0196 | 0.0216 | 0.0251 | 0.0291 | 0.033 | 0.0386 | 0.0436
in acetonitrile | 0.000701 | 0.000848 | 0.00113 | 0.00138 | 0.0018 | 0.00227 | 0.00284 | 0.00363 | 0.00444
in dichloromethane | 0.0128 | 0.0141 | 0.0157 | 0.0183 | 0.0214 | 0.0251 | – | – | –
in ethanol | 0.00193 | 0.00252 | 0.00334 | 0.00422 | 0.00529 | 0.00641 | 0.0082 | 0.0102 | 0.013
in ethyl acetate | 0.0043 | 0.00516 | 0.00606 | 0.00698 | 0.00782 | 0.009 | 0.00995 | 0.0112 | 0.0126
in isopropanol | 0.00178 | 0.00232 | 0.00302 | 0.0039 | 0.00508 | 0.00667 | 0.00886 | 0.0117 | 0.0147
in isopropyl acetate | 0.00415 | 0.00485 | 0.00544 | 0.00624 | 0.00715 | 0.00815 | 0.00901 | 0.00991 | 0.011
in methanol | 0.00164 | 0.00194 | 0.00238 | 0.00292 | 0.0037 | 0.0047 | 0.00617 | 0.00811 | 0.0111
in n-butyl acetate | 0.00418 | 0.00493 | 0.00556 | 0.00639 | 0.00727 | 0.00824 | 0.00952 | 0.0109 | 0.0123
in n-heptane | 1.5e-05 | 1.8e-05 | 2.3e-05 | 2.7e-05 | 3.3e-05 | 3.8e-05 | 4.3e-05 | 4.8e-05 | 5.2e-05
in n-propanol | 0.0165 | 0.0212 | 0.0258 | 0.0321 | 0.0399 | 0.0496 | 0.062 | 0.0773 | 0.0958
in n-propyl acetate | 0.0037 | 0.00454 | 0.00547 | 0.00631 | 0.00738 | 0.00846 | 0.00983 | 0.0115 | 0.0129
